# Target: T1, human TLR7 (Homo sapiens, UniProt Q9NYK1)
# T1 construct: host or cells: HEK-Blue TLR7 cells (engineered human embryonic kidney cells)
# T1 sequence (Q9NYK1 27-1049): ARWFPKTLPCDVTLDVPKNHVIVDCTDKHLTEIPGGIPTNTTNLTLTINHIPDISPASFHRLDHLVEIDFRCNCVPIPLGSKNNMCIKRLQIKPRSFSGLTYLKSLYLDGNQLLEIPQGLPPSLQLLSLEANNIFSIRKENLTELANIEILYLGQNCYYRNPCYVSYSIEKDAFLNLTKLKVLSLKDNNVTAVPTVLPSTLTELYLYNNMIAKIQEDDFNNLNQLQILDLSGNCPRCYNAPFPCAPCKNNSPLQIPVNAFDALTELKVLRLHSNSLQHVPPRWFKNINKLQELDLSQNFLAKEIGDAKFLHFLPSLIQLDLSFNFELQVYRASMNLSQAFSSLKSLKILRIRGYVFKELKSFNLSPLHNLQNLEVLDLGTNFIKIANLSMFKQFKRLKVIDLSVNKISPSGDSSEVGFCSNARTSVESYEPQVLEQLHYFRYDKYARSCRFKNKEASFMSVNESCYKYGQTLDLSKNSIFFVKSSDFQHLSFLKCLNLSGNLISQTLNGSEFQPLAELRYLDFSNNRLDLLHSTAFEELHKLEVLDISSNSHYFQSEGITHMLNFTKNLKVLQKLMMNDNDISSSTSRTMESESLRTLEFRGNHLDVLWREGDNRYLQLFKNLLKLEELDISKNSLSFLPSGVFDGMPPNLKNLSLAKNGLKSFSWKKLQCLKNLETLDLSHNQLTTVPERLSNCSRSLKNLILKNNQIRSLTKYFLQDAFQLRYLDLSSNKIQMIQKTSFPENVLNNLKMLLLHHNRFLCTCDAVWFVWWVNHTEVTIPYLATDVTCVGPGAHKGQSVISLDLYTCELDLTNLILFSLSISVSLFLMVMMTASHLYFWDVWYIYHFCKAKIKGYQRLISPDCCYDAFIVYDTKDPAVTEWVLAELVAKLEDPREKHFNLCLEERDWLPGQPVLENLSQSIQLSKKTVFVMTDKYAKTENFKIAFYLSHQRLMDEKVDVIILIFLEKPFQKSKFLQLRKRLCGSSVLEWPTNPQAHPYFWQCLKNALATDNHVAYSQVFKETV
# Assay: Human TLR7 agonist activity assay (HEK-Blue TLR7 SEAP reporter)
# Assay type: cell-based
# Details: HEK-Blue TLR7 cells, 18 h treatment, average where assay performed multiple times, read-out: hTLR7 Agonism EC50
# Description: This procedure describes a method for assaying human TLR7 (hTLR7) agonist activity of the compounds disclosed in this specification.
# HEK-Blue™ TLR7 cells were added to each well of a 384-well tissue-culture plate (15,000 cells per well) and incubated 16-18 h at 37° C., 5% CO2. Compounds (100 nl) were dispensed into wells containing the HEK-Blue™ TLR cells and the treated cells were incubated at 37° C., 5% CO2. After 18 h treatment ten microliters of freshly-prepared Quanti-Blue™ reagent (Invivogen) was added to each well, incubated for 30 min (37° C., 5% CO2) and SEAP levels measured using an Envision plate reader (OD=620 nm). The half maximal effective concentration values (EC50; compound concentration which induced a response halfway between the assay baseline and maximum) were calculated.
row,EC50,SMILES
1,56.6 nM,"CCC[C@@H](CCO)Nc1nc(N)nc2cnn(Cc3ncc(C4CCN(C5CCN(C)CC5)CC4)cc3OC)c12 [Compound 213, (3S)-3-({5-amino-1-[(3-methoxy-5-{1′-methyl-[1,4′-bipiperidine]-4-yl}pyridin-2-yl)methyl]-1H-pyrazolo[4,3-d]pyrimidin-7-yl}amino)hexan-1-ol]"
2,13 nM,"CCCCNc1nc(N)nc2cnn(Cc3ccc(C4CCNCC4)cc3OC)c12 [Compound 160, N7-butyl-1-{[2-methoxy-4-(piperidin-4-yl)phenyl]methyl}-1H-pyrazolo[4,3-d]pyrimidine-5,7-diamine]"
3,80.1 nM,"CCCCNc1nc(N)nc2cnn(Cc3ncc(C4CCN(Cc5ncn(C)n5)CC4)cc3OC)c12 [Compound 217, N7-butyl-1-[(3-methoxy-5-{1-[(1-methyl-1H-1,2,4-triazol-3-yl)methyl]piperidin-4-yl}pyridin-2-yl)methyl]-1H-pyrazolo[4,3-d]pyrimidine-5,7-diamine]"
4,57.1 nM,"CCC[C@@H](CCO)Nc1nc(N)nc2c(C)nn(Cc3cnc(C4CCNCC4)cc3OC)c12 [Compound 221, (3S)-3-[(5-amino-1-{[4-methoxy-6-(piperidin-4-yl)pyridin-3-yl]methyl}-3-methyl-1H-pyrazolo[4,3-d]pyrimidin-7-yl)amino]hexan-1-ol]"
5,119 nM,"CCCCNc1nc(N)nc2cnn(Cc3ncc(C4CCN(C(CC)CC)CC4)cc3OC)c12 [Compound 130, N7-butyl-1-({3-methoxy-5-[1-(pentan-3-yl)piperidin-4-yl]pyridin-2-yl}methyl)-1H-pyrazolo[4,3-d]pyrimidine-5,7-diamine]"
6,111 nM,"COc1cc(C2CCNCC2)cnc1Cn1ncc2nc(N)nc(NCC3CC4(CC4)C3)c21 [Compound 152, 1-{[3-methoxy-5-(piperidin-4-yl)pyridin-2-yl]methyl}-N7-({spiro[2.3]hexan-5-yl}methyl)-1H-pyrazolo[4,3-d]pyrimidine-5,7-diamine]"
7,91.1 nM,"CCC[C@@H](CCO)Nc1nc(N)nc2cnn(Cc3ncc(C4CCN(Cc5ncn(C)n5)CC4)cc3OC)c12 [Compound 204, (3S)-3-({5-amino-1-[(3-methoxy-5-{1-[(1-methyl-1H-1,2,4-triazol-3-yl)methyl]piperidin-4-yl}pyridin-2-yl)methyl]-1H-pyrazolo[4,3-d]pyrimidin-7-yl}amino)hexan-1-ol]"
8,199 nM,"COc1cc(C2CCN(C(=O)CCN(C)C)CC2)cnc1Cn1ncc2nc(N)nc(NCC3CC4(CC4)C3)c21 [Compound 155, 1-{4-[6-({5-amino-7-[({spiro[2.3]hexan-5-yl}methyl)amino]-1H-pyrazolo[4,3-d]pyrimidin-1-yl}methyl)-5-methoxypyridin-3-yl]piperidin-1-yl}-3-(dimethylamino)propan-1-one]"
9,123 nM,"CCC[C@@H](CCO)Nc1nc(N)nc2cnn(Cc3ncc(C4CCN(C5CCOC5)CC4)cc3OC)c12 (single isomer, unassigned) [Compound 211]"
10,256 nM,"CCC[C@@H](CCO)Nc1nc(N)nc2cnn(Cc3ncc(C4CCCNC4)cc3OC)c12 (single isomer, unassigned) [Compound 201]"
11,25.9 nM,"CCCCNc1nc(N)nc2cnn(Cc3ncc(C4CCN(CC5CCOCC5)CC4)cc3OC)c12 [Compound 218, N7-butyl-1-[(3-methoxy-5-{1-[(oxan-4-yl)methyl]piperidin-4-yl}pyridin-2-yl)methyl]-1H-pyrazolo[4,3-d]pyrimidine-5,7-diamine]"
12,6.5 nM,"CCC[C@@H](CCO)Nc1nc(N)nc2cnn(Cc3ncc(C4CCN(C5CCOC5)CC4)cc3OC)c12 (single isomer, unassigned) [Compound 212]"
13,9.05 nM,"CCC[C@@H](CCO)Nc1nc(N)nc2cnn(Cc3ncc(C4CCN(C5CCOC5)CC4)cc3OC)c12 (stereo partly drawn) [Compound 210, (3S)-3-{[5-amino-1-({3-methoxy-5-[1-(oxolan-3-yl)piperidin-4-yl]pyridin-2-yl}methyl)-1H-pyrazolo[4,3-d]pyrimidin-7-yl]amino}hexan-1-ol]"
14,74.9 nM,"CCC[C@@H](CCO)Nc1nc(N)nc2cnn(Cc3ncc(C4CCN(CCS(C)(=O)=O)CC4)cc3OC)c12 [Compound 206, (3S)-3-{[5-amino-1-({5-[1-(2-methanesulfonylethyl)piperidin-4-yl]-3-methoxypyridin-2-yl}methyl)-1H-pyrazolo[4,3-d]pyrimidin-7-yl]amino}hexan-1-ol]"
15,29.8 nM,"CCC[C@@H](CCO)Nc1nc(N)nc2c(C)nn(Cc3ncc(C4CCN(C5CCOCC5)CC4)cc3OC)c12 [Compound 215, (3S)-3-{[5-amino-1-({3-methoxy-5-[1-(oxan-4-yl)piperidin-4-yl]pyridin-2-yl}methyl)-3-methyl-1H-pyrazolo[4,3-d]pyrimidin-7-yl]amino}hexan-1-ol]"
16,21.9 nM,"CCCCNc1nc(N)nc2cnn(Cc3cnc(C4CCN(C5CCOCC5)CC4)cc3OC)c12 [Compound 219, N7-butyl-1-({4-methoxy-6-[1-(oxan-4-yl)piperidin-4-yl]pyridin-3-yl}methyl)-1H-pyrazolo[4,3-d]pyrimidine-5,7-diamine]"
17,170 nM,"CCC[C@@H](CCO)Nc1nc(N)nc2c(C)nn(Cc3cnc(C4CCN(C5CCOCC5)CC4)cc3OC)c12 [Compound 222, (3S)-3-{[5-amino-1-({4-methoxy-6-[1-(oxan-4-yl)piperidin-4-yl]pyridin-3-yl}methyl)-3-methyl-1H-pyrazolo[4,3-d]pyrimidin-7-yl]amino}hexan-1-ol]"
18,496 nM,"CCC[C@@H](CCO)Nc1nc(N)nc2cnn(Cc3ccc(C4CN(C(=O)CCN(C)C)CCN4)cc3OC)c12 (stereo partly drawn) [Compound 202, 1-(3-{4-[(5-amino-7-{[(3S)-1-hydroxyhexan-3-yl]amino}-1H-pyrazolo[4,3-d]pyrimidin-1-yl)methyl]-3-methoxyphenyl}piperazin-1-yl)-3-(dimethylamino)propan-1-one]"
19,12.3 nM,"CCC[C@@H](CCO)Nc1nc(N)nc2cnn(Cc3ccc(C4CN(CC(C)(C)O)CCN4)cc3OC)c12 (stereo partly drawn) [Compound 209, (3S)-3-{[5-amino-1-({4-[4-(2-hydroxy-2-methylpropyl)piperazin-2-yl]-2-methoxyphenyl}methyl)-1H-pyrazolo[4,3-d]pyrimidin-7-yl]amino}hexan-1-ol]"
20,1540 nM,"CCC[C@@H](CCO)Nc1nc(N)nc2cnn(Cc3ccc(C4CCN(C5CCOCC5)CC4)nc3)c12 [Compound 216, (3S)-3-{[5-amino-1-({6-[1-(oxan-4-yl)piperidin-4-yl]pyridin-3-yl}methyl)-1H-pyrazolo[4,3-d]pyrimidin-7-yl]amino}hexan-1-ol]"
21,40.9 nM,"COc1cc(C2CCN(C(C)C)CC2)cnc1Cn1ncc2nc(N)nc(NCC3CC4(CC4)C3)c21 [Compound 156, 1-({3-methoxy-5-[1-(propan-2-yl)piperidin-4-yl]pyridin-2-yl}methyl)-N7-({spiro[2.3]hexan-5-yl}methyl)-1H-pyrazolo[4,3-d]pyrimidine-5,7-diamine]"
22,315 nM,"CCC[C@@H](CCO)Nc1nc(N)nc2cnn(Cc3ncc(C4CCN(C5CCNCC5)CC4)cc3OC)c12 [Compound 214, (3S)-3-([5-amino-1-[(5-{[1,4′-bipiperidine]-4-yl}-3-methoxypyridin-2-yl)methyl]-1H-pyrazolo[4,3-d]pyrimidin-7-yl}amino)hexan-1-ol]"

# Reference: patent publication US20230144824A1, “1H-PYRAZOLO[4,3-d]PYRIMIDINE COMPOUNDS AS TOLL-LIKE RECEPTOR 7 (TLR7) AGONISTS” (BRISTOL-MYERS SQUIBB COMPANY, priority 2020, published 2023)
